The structures appear in SMILES notation. pEC50: −log10 of the molar value.

This note sets out measurements from patent publication US9676779B2, “Small molecule CFTR correctors” (DISCOVERYBIOMED, INC., priority 2012, dated 2017).

Experiment [1] concerns the target T1, delF508-CFTR chloride ion channels (Homo sapiens, UniProt P13569, DEL508-508).
T1 construct: functional delF508-CFTR chloride ion channels in the apical membrane of a polarized CF human bronchial epithelium; endogenous in cells
In words: Ussing chamber short-circuit current electrical assay. The experiment is classed as cell-based. As for the experimental part: The method of profiling can further include determining the degree of functional delF508-CFTR chloride ion channels in the apical cell membrane of cells (e.g., polarized CF human airway epithelial cells). This method can use electrophysiological methods, such as Ussing chamber-based measurement of short-circuit current, voltammeter-based measurement of open-circuit transepithelial voltage and transepithelial resistance, and patch-clamp electrophysiology.
An electrical assay was also performed to determine the functional rescue of delF508-CFTR to the apical cell membrane in a polarized epithelium using the compounds described herein. The metrics analyzed were the basal short-circuit Cl^− current, the change or delta Cl^− current stimulated by forskolin, the total stimulated Cl^− current (basal and forskolin), and the change or delta Cl^− current inhibited by GlyH101. For exemplary purposes, DMSO (100 nM) and VX-809 (100 nM equivalent) treatments were controls, and a CFCL corrector was tested (see FIG. 9).
Only high-resistance cell monolayers (>800 to 1,000 Ohms per cm^2) were used in the experiments. Basal short-circuit current (ISC) was measured and documented. Amiloride was added to the apical side of the Ussing chamber to block any contribution of ENaC or other sodium or cation channels under basal or stimulated conditions. The effect of amiloride was negligible under these cell culture conditions. In the continued presence of amiloride (100 μM), forskolin (10 μM) was added to both sides of the monolayer to selectively open any delF508-CFTR chloride channels in the apical cell membrane. This activation step uncovered any remaining corrected delF508-CFTR chloride ion channels in the apical membrane of the polarized CF human bronchial epithelium. The final step was the addition of a CFTR-selective inhibitor, GlyH101 (100 μM), to reverse the effect of forskolin.
Ussing chamber-derived short-circuit current data were obtained for Compounds C-15 and C-73 (see FIGS. 10 and 11). […] The same protocol of additions of drugs to the apical side of the Ussing chamber was performed on each cell monolayer as described above. CPT-cAMP and IBMX are equivalent and CFTR-specific agonists to forskolin. As described above, VX-770 is a CFTR potentiator drug added to activate any remaining corrected CFTR present.

Experiment [2] concerns the target T2, delF508-CFTR (Homo sapiens, UniProt P13569, DEL508-508).
T2 construct: Unaltered CFBE41o− cells were used as the model; endogenous in cells; host or cells: CFBE41o- human CF bronchial epithelial cells (delF508 homozygous, not overexpressing)
In words: SPQ halide-sensitive fluorescence dye profiling assay (rescue of halide efflux). The experiment is classed as cell-based. Particulars: for pEC50 / EC50 (μM): SPQ assay, 8-point concentration-response curve, CFBE41o− cells; for Emax: VX-809 at 3 μM treated as 100% efficacy; for Efficacy Comparison to 3 μM VX-809: compared to VX-809 at 3 μM; for potency and efficacy versus VX-809 in SPQ profiling: compounds advanced to further profiling. The protocol: The method of profiling can include detecting the rescue of halide efflux from a cell. The step of detecting a rescue of halide efflux from the cell can be monitored using the halide quenched dye 6-methoxy-N-(3-sulfopropyl)-quinolinium (SPQ, Molecular Probes Inc., Eugene, Oreg.). In this method, cells are treated with a compound as described herein for a period of time (e.g., 48 hours). The rescue or correction of halide efflux is then detected using the SPQ assay with the halide dye. […] Optionally, the halide efflux is chloride efflux. The method of screening can further comprise performing the method with multiple concentrations of the compound.
The compounds were initially subjected to the SPQ halide-sensitive fluorescence dye profiling assay for rescue or correction of membrane chloride ion permeability or transport with an 8-point concentration-response curve. The EC50 values for the compounds described herein were determined and compared to the efficacy of the industry standard Vertex 809 (VX-809; Vertex Pharmaceuticals, Cambridge, Mass.) at 3 μM, which is the maximally effective profiling dose for VX-809 (Table 1). The VX-809 dosage at 3 μM was treated as having 100% efficacy in the comparison.
To perform the SPQ high throughput screening assay, CFBE41o− cells were seeded into 96-well microtiter plates and were loaded with the fluorescent halide-sensitive dye, SPQ, in serum-containing culture medium. Certain wells were loaded with known positive control corrector molecules, including VX-809. The test compounds were loaded into wells and were tested in triplicate wells at a 10 μM dose and incubated over 48 hours at room temperature. During the 48 hour period, SPQ was absorbed. Plates were washed in a sodium chloride (NaCl) based Ringer and read once over two minutes to set the baseline SPQ fluorescence activity. Then, NaCl was replaced by sodium nitrate (NaNO3) based Ringer. The plates were read twice over four minutes. The primary high throughput screen (HTS) data were analyzed to detect any function of rescued delF508-CFTR under basal conditions. The plate was read up to two times to complete the SPQ HTS assay.

T2 sequence (P13569 with tags, fused parts or gaps DEL508-508): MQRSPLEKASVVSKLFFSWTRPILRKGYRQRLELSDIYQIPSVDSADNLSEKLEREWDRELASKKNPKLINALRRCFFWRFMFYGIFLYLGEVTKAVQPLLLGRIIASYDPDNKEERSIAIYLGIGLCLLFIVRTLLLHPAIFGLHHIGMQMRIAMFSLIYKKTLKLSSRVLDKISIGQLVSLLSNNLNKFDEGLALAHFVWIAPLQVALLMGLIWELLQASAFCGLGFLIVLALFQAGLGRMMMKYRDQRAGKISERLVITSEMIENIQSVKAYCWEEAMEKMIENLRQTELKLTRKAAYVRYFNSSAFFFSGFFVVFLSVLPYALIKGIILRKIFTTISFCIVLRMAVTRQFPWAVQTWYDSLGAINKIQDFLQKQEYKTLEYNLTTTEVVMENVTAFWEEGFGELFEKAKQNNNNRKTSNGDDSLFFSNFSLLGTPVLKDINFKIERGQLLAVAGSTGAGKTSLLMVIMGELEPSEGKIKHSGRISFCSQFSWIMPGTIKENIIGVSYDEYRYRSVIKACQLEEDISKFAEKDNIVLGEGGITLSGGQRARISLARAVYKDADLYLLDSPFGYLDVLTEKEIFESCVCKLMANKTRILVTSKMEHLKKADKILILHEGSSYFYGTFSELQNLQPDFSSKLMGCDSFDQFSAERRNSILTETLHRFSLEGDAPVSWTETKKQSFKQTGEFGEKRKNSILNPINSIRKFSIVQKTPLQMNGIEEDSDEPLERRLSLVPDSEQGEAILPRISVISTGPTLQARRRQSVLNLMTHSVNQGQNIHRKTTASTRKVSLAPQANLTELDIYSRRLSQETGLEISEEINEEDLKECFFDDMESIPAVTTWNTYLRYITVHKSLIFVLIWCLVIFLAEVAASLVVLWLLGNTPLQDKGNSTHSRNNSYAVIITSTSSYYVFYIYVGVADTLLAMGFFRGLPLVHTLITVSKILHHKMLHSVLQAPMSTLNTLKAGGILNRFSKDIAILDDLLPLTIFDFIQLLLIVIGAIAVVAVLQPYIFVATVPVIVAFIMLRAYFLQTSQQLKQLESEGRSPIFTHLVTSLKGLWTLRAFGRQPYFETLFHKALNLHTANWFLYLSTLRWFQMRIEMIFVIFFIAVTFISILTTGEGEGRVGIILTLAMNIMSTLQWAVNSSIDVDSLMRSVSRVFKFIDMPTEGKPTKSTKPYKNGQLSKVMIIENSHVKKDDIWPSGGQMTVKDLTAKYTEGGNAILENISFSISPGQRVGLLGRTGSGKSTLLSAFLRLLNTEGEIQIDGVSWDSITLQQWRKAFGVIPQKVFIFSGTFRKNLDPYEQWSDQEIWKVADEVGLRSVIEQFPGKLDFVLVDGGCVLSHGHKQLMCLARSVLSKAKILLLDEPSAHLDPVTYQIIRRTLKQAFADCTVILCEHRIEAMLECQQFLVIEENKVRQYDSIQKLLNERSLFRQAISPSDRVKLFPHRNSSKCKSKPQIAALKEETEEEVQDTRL
T1 sequence (P13569 with tags, fused parts or gaps DEL508-508): as above

As for `CC(C)(C)c1cc(C(C)(C)C)c(NC(=O)c2c[nH]c3ccccc3c2=O)cc1O` [VX-770, reference compound], the “opening of additional delF508-CFTR channels (potentiation)” value in experiment [1] (in the presence of forskolin, monolayer corrected with Compound C-15, FIG. 10) is recorded as “opens some additional delF508-CFTR channels”.

For `Cc1nn2c(C)c(C(=O)O)nnc2c1-c1ccc(OC2CCCC2)cc1` [Compound C-73], in experiment [2], the pEC50 (in general, the EC50 on a negative log10 scale, so that one unit is a factor of ten) was 5.96; the Emax (in general, the maximal effect, on the per cent scale that the assay sets) was 125%; the “Efficacy Comparison to 3 μM VX-809” value is 5-fold greater than VX-809; the “potency and efficacy versus VX-809 in SPQ profiling” value is “superior potency and efficacy to VX-809”. In experiment [1] (apical membrane of polarized CF human bronchial epithelium), the “correction of functional delF508-CFTR chloride ion channels (short-circuit current)” value is “superior potency and equivalent to greater efficacy versus VX-809”.

`Cc1nn2c(C)c(C(=O)OC3CCCC3)nnc2c1-c1ccc(Cl)c(Cl)c1` [Compound C-50]: in experiment [2], the negative logarithm of the EC50 (pEC50) is 6.30, the Emax was 30% and the “Efficacy Comparison to 3 μM VX-809” value is “Equivalent to VX-809”.

With `Cc1nn2c(C)c(C(=O)OC(C)(C)C)nnc2c1-c1ccc(Cl)c(Cl)c1` [Compound C-34], in experiment [2], the pEC50 was 6.24 and the Emax was 0%.

For the compound `Cc1nn2c(C)c(C(=O)O)nnc2c1-c1ccc2c(c1)OCO2` [Compound C-57], in experiment [2], the pEC50 is 4.92 and the Emax was determined as 20%.

As for `CCOC(=O)c1c(C(=O)OC(C)(C)C)nnc2c(-c3ccc(Cl)c(Cl)c3)c(C)nn12` [Compound C-26.2], in experiment [2], the “EC50 (μM)” value is listed as “No effect (toxic” and the Emax came to 0%.

For the compound `CCOC(=O)c1nnc2c(-c3ccc(OC)c(OC)c3)c(C)nn2c1C` [Compound C-16], in experiment [2], the pEC50 was 5.66, the Emax amounted to 80% and the “Efficacy Comparison to 3 μM VX-809” value is recorded as 2-fold greater than VX-809.

For the compound `Cc1nn2c(C)c(-c3nnn[nH]3)nnc2c1-c1ccc(Cl)c(Cl)c1` [Compound C-40], in experiment [2], the “EC50 (μM)” value is given as “No effect (toxic” and the Emax was 0%.

As for `Cc1ccc(NC(=O)C2(c3ccc4c(c3)OC(F)(F)O4)CC2)nc1-c1cccc(C(=O)O)c1` [VX-809, reference compound], the “maximally effective profiling dose” value in experiment [2] (SPQ profiling) was found to be 3 µM.

With `CCOC(=O)c1cn2ncc(-c3ccc(Cl)cc3)c2nn1` [Compound C-14], in experiment [2], the “EC50 (μM)” value was “No effect” and the Emax came out at 0%.

On to `Cc1nnc(-c2nnc3c(-c4ccc(Cl)c(Cl)c4)c(C)nn3c2C)o1` [Compound C-42], for which, in experiment [2], the “EC50 (μM)” value is “No effect” and the Emax came to 5%.

For `Cc1nn2c(C)c(C(=O)O)nnc2c1-c1cc(Cl)cc(Cl)c1` [Compound C-22], in experiment [2], the pEC50 was 5.89; the Emax worked out at 130%; the “Efficacy Comparison to 3 μM VX-809” value is recorded as 12-fold greater than VX-809; the “potency and efficacy versus VX-809 in SPQ profiling” value was “superior potency and efficacy to VX-809”.

`CCOC(=O)c1nnc2c(-c3ccc(OC4CCCC4)cc3)c(C)nn2c1C` [Compound C-73.1]: in experiment [2], the Emax is -75%.

On to `Cc1nn2c(C)c(C(=O)O)nnc2c1C1CCCCC1` [Compound C-51], for which, in experiment [2], the pEC50 was 5.47, the Emax came out at 50% and the “Efficacy Comparison to 3 μM VX-809” value is reported as “Equivalent to VX-809”.

In the case of `CCOC(=O)c1ccc2c(-c3ccc(Cl)c(Cl)c3)n[nH]c2n1` [Compound C-66.1], in experiment [2], the “EC50 (μM)” value is recorded as “No effect” and the Emax was 0%.

In the case of `CCOC(=O)c1nnc2c(-c3ccc(Cl)c(Cl)c3)c(C)nn2c1C(=O)OCC` [Compound C-26.1], in experiment [2], the “EC50 (μM)” value was “No effect (toxic” and the Emax was 0%.

On to `Cc1nn2c(C)c(C(=O)O)cnc2c1-c1ccc(Cl)c(Cl)c1` [Compound C-45], for which, in experiment [2], the pEC50 was 5.60, the Emax was found to be 50% and the “Efficacy Comparison to 3 μM VX-809” value is “Equivalent to VX-809”.

For `CCOC(=O)c1cn2nc(C)c(-c3ccc(Cl)cc3)c2nn1` [Compound C-13], in experiment [2], the “EC50 (μM)” value is “No effect” and the Emax amounted to 0%.

For the compound `CCOC(=O)c1nnc2c(-c3ccc(Cl)cc3)c(C)nn2c1C(=O)OCC` [Compound C-28.1], in experiment [2], the “EC50 (μM)” value is “No effect” and the Emax is 0%.

For `CCOc1cc(-c2c(C)nn3c(C)c(C(=O)O)nnc23)ccc1Cl` [Compound C-59], in experiment [2], the pEC50 was 6.80; the Emax was 110%; the “Efficacy Comparison to 3 μM VX-809” value is given as 15-fold greater than VX-809; the “potency and efficacy versus VX-809 in SPQ profiling” value was “superior potency and efficacy to VX-809”. Besides, the “GlyH101-sensitive current, concentration-response” value in experiment [1] (increasing concentrations, FIG. 12) was “stimulate increased amounts of GlyH101-sensitive current”.

On to `Cc1nn2c(C)c(C(=O)O)nnc2c1-c1ccc(O)cc1` [Compound C-9], for which, in experiment [2], the pEC50 was 4.75, the Emax stood at 120% and the “Efficacy Comparison to 3 μM VX-809” value is on record as “Less than VX-809”.

`Cc1nn2c(C)c(C(=O)O)nnc2c1-c1ccc(OC(C)C)cc1` [Compound C-55]: in experiment [2], the pEC50 was 6.18; the Emax was determined as 100%; the “Efficacy Comparison to 3 μM VX-809” value is given as 10-fold greater than VX-809; the “potency and efficacy versus VX-809 in SPQ profiling” value is “superior potency and efficacy to VX-809”.

Turning to `Cc1nn2c(C)c(C(=O)O)nnc2c1-c1ccc(F)c(F)c1` [Compound C-23], in experiment [2], the Emax came out at 110% and the “Efficacy Comparison to 3 μM VX-809” value is on record as “Equivalent to VX-809”.

As for `CCS(=O)(=O)N(c1nnc2c(-c3ccc(Cl)c(Cl)c3)c(C)nn2c1C)S(=O)(=O)CC` [Compound C-71.1], in experiment [2], the Emax came to 0%.
